Results reported in ChEMBL document CHEMBL4330134, “Design, synthesis, and bioevaluation of a novel class of (E)-4-oxo-crotonamide derivatives as potent antituberculosis agents” (Bioorg Med Chem Lett, 2019).
Converted amounts (≈) assume the structure as drawn.

Test system: Mycobacterium tuberculosis
Assay: Antimycobacterial activity against Mycobacterium tuberculosis H37Rv ATCC 27294 after 4 days by microplate Alamar blue assay
Format: functional
Conditions: H37Rv ATCC 27294, 96 h

Structure (SMILES) | MIC
CCCN(CCC)C(=O)/C=C/C(=O)c1ccccc1[N+](=O)[O-] | 1.24 µg/mL (≈ 4.07 µM)
NNC(=O)c1ccncc1 [ISONIAZID] | 0.025 µg/mL (≈ 0.182 µM)
CCCN(CCC)C(=O)/C=C/C(=O)c1ccc(-c2ccccc2)cc1 | 1.4 µg/mL (≈ 4.17 µM)
CCOC(=O)/C=C/C(=O)c1ccco1 | 1.09 µg/mL (≈ 5.61 µM)
Cc1ccc(C(=O)/C=C/C(=O)OCCNC(=O)OC(C)(C)C)cc1 | > 4 µg/mL
COc1ccc(OC)c(C(=O)/C=C/C(=O)O)c1 | > 4 µg/mL
CC(C)OC(=O)/C=C/C(=O)C1CC1 | 0.68 µg/mL (≈ 3.73 µM)
COc1ccc(C(=O)/C=C/C(=O)OC(C)C)cc1 | 1.64 µg/mL (≈ 6.61 µM)
CCOC(=O)/C=C/C(=O)c1ccc(C)cc1 | > 4 µg/mL
COC(=O)/C=C/C(=O)C1CC1 | > 4 µg/mL
CCOC(=O)/C=C/C(=O)c1ccc2c(c1)OCO2 | 0.49 µg/mL (≈ 1.97 µM)
CC(C)(C)OC(=O)NCCOC(=O)/C=C/C(=O)c1ccco1 | > 4 µg/mL
CCCN(CCC)C(=O)/C=C/C(=O)c1ccc(Cl)c(Cl)c1 | 0.88 µg/mL (≈ 2.68 µM)
CCN(C)C(=O)/C=C/C(=O)c1ccc2c(c1)OCO2 | > 2 µg/mL
COc1ccc(C(=O)/C=C/C(=O)OCCNC(=O)OC(C)(C)C)cc1OC | > 4 µg/mL
CN(C)C(=O)/C=C/C(=O)c1ccccc1Cl | 0.84 µg/mL (≈ 3.53 µM)
CN(C)C(=O)/C=C/C(=O)c1ccc(Cl)c(Cl)c1 | 0.84 µg/mL (≈ 3.09 µM)
CN(C)C(=O)/C=C/C(=O)c1ccc(F)cc1 | 0.47 µg/mL (≈ 2.12 µM)
Cc1ccc(C(=O)/C=C/C(=O)O)cc1 | > 4 µg/mL
CCOC(=O)/C=C/C(=O)c1ccc(Br)cc1 | 0.52 µg/mL (≈ 1.84 µM)
CC(C)OC(=O)/C=C/C(=O)c1ccc([N+](=O)[O-])cc1 | 0.5 µg/mL (≈ 1.9 µM)
COc1ccccc1C(=O)/C=C/C(=O)OCCNC(=O)OC(C)(C)C | > 4 µg/mL
CCCN(CCC)C(=O)/C=C/C(=O)c1cccc([N+](=O)[O-])c1 | > 2 µg/mL

Structure (SMILES) | MIC
CCN(C)C(=O)/C=C/C(=O)c1ccccc1F | 0.24 µg/mL (≈ 1.02 µM)
CC(C)OC(=O)/C=C/C(=O)c1ccc(OCc2ccccc2)cc1 | 1.14 µg/mL (≈ 3.51 µM)
CC(C)(C)OC(=O)NCCOC(=O)/C=C/C(=O)c1ccccc1 | > 4 µg/mL
CCOC(=O)/C=C/C(=O)c1ccc(Cl)cc1Cl | 1.09 µg/mL (≈ 3.99 µM)
Cc1ccc(C(=O)/C=C/C(=O)OC(C)C)cc1 | 0.77 µg/mL (≈ 3.31 µM)
CC(C)(C)OC(=O)NCCOC(=O)/C=C/C(=O)c1ccc(Oc2ccccc2)cc1 | > 4 µg/mL
COc1ccc(OC)c(C(=O)/C=C/C(=O)OCCNC(=O)OC(C)(C)C)c1 | > 4 µg/mL
CC(C)(C)OC(=O)NCCOC(=O)/C=C/C(=O)c1ccc([N+](=O)[O-])cc1 | > 4 µg/mL
CCOC(=O)/C=C/C(=O)c1cccc(OC)c1 | 0.82 µg/mL (≈ 3.5 µM)
CCCN(CCC)C(=O)/C=C/C(=O)c1ccccc1OC | > 2 µg/mL
CCCN(CCC)C(=O)/C=C/C(=O)c1ccccc1Cl | > 2 µg/mL
CCCN(CCC)C(=O)/C=C/C(=O)c1ccc(Cl)cc1 | 1.67 µg/mL (≈ 5.68 µM)
CN(C)C(=O)/C=C/C(=O)c1ccc2c(c1)OCO2 | 0.79 µg/mL (≈ 3.2 µM)
CCOc1ccc(C(=O)/C=C/C(=O)OC(C)C)cc1 | 0.47 µg/mL (≈ 1.79 µM)
COc1cccc(C(=O)/C=C/C(=O)O)c1 | > 4 µg/mL
CN(C)C(=O)/C=C/C(=O)c1ccc(Br)cc1 | 0.25 µg/mL (≈ 0.886 µM)
COC(=O)/C=C/C(=O)c1ccc(Oc2ccccc2)cc1 | 0.87 µg/mL (≈ 3.08 µM)
COC(=O)/C=C/C(=O)c1ccc(OC)c(OC)c1 | 0.44 µg/mL (≈ 1.76 µM)
COC(=O)/C=C/C(=O)c1ccc(-c2ccccc2)cc1 | 0.2 µg/mL (≈ 0.751 µM)
CCOC(=O)/C=C/C(C)=O | 3.51 µg/mL (≈ 24.7 µM)
COc1cccc(C(=O)/C=C/C(=O)N(C)C)c1 | 1.62 µg/mL (≈ 6.94 µM)
O=C(O)/C=C/C(=O)C1CCCCC1 | > 4 µg/mL
CCOC(=O)/C=C/C(=O)c1ccc(Oc2ccccc2)cc1 | 1.52 µg/mL (≈ 5.13 µM)

Structure (SMILES) | MIC
CCN(C)C(=O)/C=C/C(=O)c1ccc(OC)cc1 | 0.93 µg/mL (≈ 3.76 µM)
CC(C)OC(=O)/C=C/C(=O)c1ccc(Cl)cc1Cl | 1.01 µg/mL (≈ 3.52 µM)
CCOc1ccc(C(=O)/C=C/C(=O)N(C)C)cc1 | 0.48 µg/mL (≈ 1.94 µM)
CC(=O)/C=C/C(=O)O | > 4 µg/mL
O=C(O)/C=C/C(=O)c1ccc(Cl)cc1Cl | > 4 µg/mL
CCOC(=O)/C=C/C(=O)C1CCCCC1 | > 4 µg/mL
CCOc1ccc(C(=O)/C=C/C(=O)N(C)CC)cc1 | 0.48 µg/mL (≈ 1.84 µM)
CCOC(=O)/C=C/C(=O)c1ccc(OC)cc1 | 0.46 µg/mL (≈ 1.96 µM)
CCOC(=O)/C=C/C(=O)c1ccc(OC)c(OC)c1 | 0.82 µg/mL (≈ 3.1 µM)
CCN(C)C(=O)/C=C/C(=O)c1ccccc1[N+](=O)[O-] | 0.24 µg/mL (≈ 0.915 µM)
CCOC(=O)/C=C/C(=O)c1ccccc1OC | 1.82 µg/mL (≈ 7.77 µM)
COc1ccccc1C(=O)/C=C/C(=O)N(C)C | 0.92 µg/mL (≈ 3.94 µM)
CCCN(CCC)C(=O)/C=C/C(=O)c1cccc(Cl)c1 | 1.91 µg/mL (≈ 6.5 µM)
CC(C)(C)OC(=O)NCCOC(=O)/C=C/C(=O)c1ccc(Cl)cc1Cl | > 4 µg/mL
CCN(C)C(=O)/C=C/C(=O)c1ccccc1OC | 0.95 µg/mL (≈ 3.84 µM)
O=C(O)/C=C/C(=O)c1ccc([N+](=O)[O-])cc1 | > 4 µg/mL
COc1ccc(C(=O)/C=C/C(=O)O)cc1OC | > 4 µg/mL
CN(C)C(=O)/C=C/C(=O)c1ccccc1[N+](=O)[O-] | 1.51 µg/mL (≈ 6.08 µM)
CCCN(CCC)C(=O)/C=C/C(=O)c1cccc(OC)c1 | > 2 µg/mL
CCCN(CCC)C(=O)/C=C/C(=O)c1ccc(F)cc1 | 0.95 µg/mL (≈ 3.43 µM)
CN(C)C(=O)/C=C/C(=O)c1cccc(F)c1 | 1.84 µg/mL (≈ 8.32 µM)
O=C(O)/C=C/C(=O)c1ccc2c(c1)CCO2 | > 4 µg/mL
COC(=O)/C=C/C(=O)c1ccc([N+](=O)[O-])cc1 | 0.54 µg/mL (≈ 2.3 µM)

Structure (SMILES) | MIC
CC(C)(C)OC(=O)NCCOC(=O)/C=C/C(=O)c1ccc2c(c1)OCO2 | > 4 µg/mL
COC(=O)/C=C/C(=O)c1ccc(Cl)cc1Cl | 1.85 µg/mL (≈ 7.14 µM)
CCCN(CCC)C(=O)/C=C/C(=O)c1ccc([N+](=O)[O-])cc1 | 1.89 µg/mL (≈ 6.21 µM)
CC(C)OC(=O)/C=C/C(=O)c1ccco1 | 0.65 µg/mL (≈ 3.12 µM)
CCN(C)C(=O)/C=C/C(=O)c1cccc(OC)c1 | 1.88 µg/mL (≈ 7.6 µM)
CCN(C)C(=O)/C=C/C(=O)c1cccc([N+](=O)[O-])c1 | > 2 µg/mL
CCOc1ccc(C(=O)/C=C/C(=O)O)cc1 | > 4 µg/mL
COc1ccc(C(=O)/C=C/C(=O)O)cc1 | > 4 µg/mL
CCOC(=O)/C=C/C(=O)c1ccc([N+](=O)[O-])cc1 | 0.48 µg/mL (≈ 1.93 µM)
COc1cccc(C(=O)/C=C/C(=O)OC(C)C)c1 | 0.92 µg/mL (≈ 3.71 µM)
CCN(C)C(=O)/C=C/C(=O)c1ccc(-c2ccccc2)cc1 | 0.49 µg/mL (≈ 1.67 µM)
CCCN(CCC)C(=O)/C=C/C(=O)c1cccc(Br)c1 | > 2 µg/mL
O=C(O)/C=C/C(=O)c1ccco1 | > 4 µg/mL
CN(C)C(=O)/C=C/C(=O)c1ccc(Cl)cc1Cl | 0.41 µg/mL (≈ 1.51 µM)
CCOC(=O)/C=C/C(=O)c1cc(OC)ccc1OC | 1.05 µg/mL (≈ 3.97 µM)
CCN(C)C(=O)/C=C/C(=O)c1cccc(Br)c1 | 1.52 µg/mL (≈ 5.13 µM)
CCOC(=O)/C=C/C(=O)c1cccc2ccccc12 | 0.61 µg/mL (≈ 2.4 µM)
CCCN(CCC)C(=O)/C=C/C(=O)c1ccccc1F | 0.94 µg/mL (≈ 3.39 µM)
CC(C)OC(=O)/C=C/C(=O)c1ccc2c(c1)OCO2 | 0.87 µg/mL (≈ 3.32 µM)
O=C(O)/C=C/C(=O)c1ccc(-c2ccccc2)cc1 | > 4 µg/mL
COC(=O)/C=C/C(=O)c1ccc(Br)cc1 | 0.49 µg/mL (≈ 1.82 µM)
CCN(C)C(=O)/C=C/C(=O)c1ccc(F)cc1 | 0.25 µg/mL (≈ 1.06 µM)
CCOC(=O)/C=C/C(=O)c1ccc2c(c1)CCO2 | 0.94 µg/mL (≈ 3.82 µM)

Structure (SMILES) | MIC
CN(C)C(=O)/C=C/C(=O)c1cccc(Cl)c1 | 0.89 µg/mL (≈ 3.74 µM)
CCCN(CCC)C(=O)/C=C/C(=O)c1ccc2c(c1)OCO2 | > 2 µg/mL
O=C(O)/C=C/C(=O)c1ccc(Br)cc1 | > 4 µg/mL
CC(C)OC(=O)/C=C/C(=O)c1ccc(Br)cc1 | 0.41 µg/mL (≈ 1.38 µM)
CC(C)(C)OC(=O)NCCOC(=O)/C=C/C(=O)c1ccc(OCc2ccccc2)cc1 | 1.91 µg/mL (≈ 4.49 µM)
COc1ccc(OC)c(C(=O)/C=C/C(=O)OC(C)C)c1 | 1.48 µg/mL (≈ 5.32 µM)
CN(C)C(=O)/C=C/C(=O)c1ccc([N+](=O)[O-])cc1 | 0.93 µg/mL (≈ 3.75 µM)
CC(C)(C)OC(=O)NCCOC(=O)/C=C/C(=O)c1ccc2c(c1)CCO2 | > 4 µg/mL
CCN(C)C(=O)/C=C/C(=O)c1ccccc1Cl | 0.65 µg/mL (≈ 2.58 µM)
CCCN(CCC)C(=O)/C=C/C(=O)c1cccc(C(F)(F)F)c1 | > 2 µg/mL
CCOC(=O)/C=C/C(=O)c1ccc(OCc2ccccc2)cc1 | 0.96 µg/mL (≈ 3.09 µM)
CCCN(CCC)C(=O)/C=C/C(=O)c1cccc(F)c1 | 0.96 µg/mL (≈ 3.46 µM)
CCOc1ccc(C(=O)/C=C/C(=O)OCCNC(=O)OC(C)(C)C)cc1 | 1.45 µg/mL (≈ 3.99 µM)
CC(C)OC(=O)/C=C/C(=O)c1ccc(Oc2ccccc2)cc1 | 1.69 µg/mL (≈ 5.45 µM)
CN(C)C(=O)/C=C/C(=O)c1ccc(Cl)cc1 | 0.38 µg/mL (≈ 1.6 µM)
COC(=O)/C=C/C(=O)C1CCCCC1 | 1.2 µg/mL (≈ 6.11 µM)
CC(C)OC(=O)/C=C/C(=O)c1ccc2c(c1)CCO2 | 1.02 µg/mL (≈ 3.92 µM)
CC(C)(C)OC(=O)NCCOC(=O)/C=C/C(=O)c1ccc(-c2ccccc2)cc1 | 1.23 µg/mL (≈ 3.11 µM)
COC(=O)/C=C/C(=O)c1cccc(OC)c1 | 0.39 µg/mL (≈ 1.77 µM)
CC(C)OC(=O)/C=C/C(=O)c1cccc2ccccc12 | 0.69 µg/mL (≈ 2.57 µM)
CCN(C)C(=O)/C=C/C(=O)c1ccc(Cl)cc1 | 0.24 µg/mL (≈ 0.953 µM)
O=C(O)/C=C/C(=O)c1ccc(Oc2ccccc2)cc1 | > 4 µg/mL
